Where two headings read alike, the source gives them in different places.
Tests used:
[1] = tested on: TNF-α; experiment: In-vitro whole cell assay for TNF-α inhibition (LPS-stimulated PBMC, ELISA); format: cell-based; conditions: TNF-α by ELISA
Method: Freshly obtained venous blood was anticoagulated with heparin, diluted with an equal volume of phosphate buffered saline (“PBS”) and placed in a sterile tube or other container. Aliquots (30 mL) of this mixture were transferred to centrifuge tubes, which were underlaid with Ficoll-Hypaque (15 mL). The prepared tubes were centrifuged at 400×g, without braking, for 30 min at room temperature. Approximately ½ to ⅔ of the platelet layer above the mononuclear cell band was removed with a pipette. The majority of the mononuclear cell layer was carefully removed using a pipette and these PBMC's were diluted with PBS and spun at 600×g for 15 min. The resulting PBMC's were washed with another portion of PBS and spun at 400×g for 10 min at room temperature. The recovered pellets were diluted in low endotoxin RPMI/1% FCS culture medium, and gave a cell concentration of 0.5-2.0×10^6 PMBC/ mL. A small volume of the suspension was removed for counting on a hemocytometer and the remaining preparation was centrifuged at 200×g for 15 min at room temperature. The recovered pelleted PMBC's were resuspended in RPMI/1% FCS to a concentration of 1.67×10^6/mL.
To run the assay, the PBMC suspension (180 μL) was transferred to duplicate wells of a 96-well flat-bottom microtiter plate and incubated for 1 h at 37° C. A solution of test compound (10 μL: prepared at 20× the desired final concentration) was added to each well and the plate was incubated for 1 h at 37° C. A solution (10 μL) of LPS in RPMI/1% FCS (200 ng/mL) was added and the wells were incubated overnight at 37° C. The supernate (100 μL) was removed from each well and diluted with RPMI/1% FCS (400 μL). The samples were analyzed for TNF-α using a commercial ELISA kit (Genzyme).

[2] = target: P38 (Homo sapiens, UniProt Q16539); experiment: P38 cell, 1 μM LJ; format: cell-based; set-up: unit not given here
[3] = tested on: TNF-α; experiment: In vivo rodent assay for inhibition of LPS-induced TNF-α production; set-up: species or system Mice (BALB/cJ females); conditions: 10 mg/kg oral; for inhibition in vivo at 10 mg/kg: Mus musculus, po
Method: Mice (BALB/cJ females, Jackson Laboratories) or rats (Lewis males, Charles River) were fasted for 30 min. The animals were dosed orally on a mg/kg basis at a range of times prior to being injected intraperitoneally with LPS at 1 mg/kg and returned to their cages for 1 h. Animals were anesthetized by CO2, exsanguinated by cardiac puncture and whole blood collected (0.1-0.7 mL). The blood was allowed to clot and serum was transferred to a centrifuge tube. This sample was centrifuged, and serum was collected, aliquoted and frozen at −80° C. Samples were tested by commercial ELISA's for TNF-α (Endogen for mouse TNF-α and Biosource for rat TNF-α).

[4] = 0.5 h, 0.5 h, read-out: Mouse 10 mg/kg % inhib 0.5 h
[5] = 2 h, 2 h, read-out: Mouse 10 mg/kg % inhib 2 h

Sequence of P38 (Q16539 whole entry): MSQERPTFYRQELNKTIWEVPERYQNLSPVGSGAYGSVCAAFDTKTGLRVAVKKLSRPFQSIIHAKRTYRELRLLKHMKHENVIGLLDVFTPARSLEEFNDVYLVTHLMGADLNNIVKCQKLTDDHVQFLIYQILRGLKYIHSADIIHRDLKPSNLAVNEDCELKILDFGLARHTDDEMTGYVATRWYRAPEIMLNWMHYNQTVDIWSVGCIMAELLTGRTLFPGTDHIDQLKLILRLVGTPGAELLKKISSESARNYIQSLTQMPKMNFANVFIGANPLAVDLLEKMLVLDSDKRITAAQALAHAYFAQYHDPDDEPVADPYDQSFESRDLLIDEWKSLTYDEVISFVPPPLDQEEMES

Row | SMILES | IC50 [1] | P38 cell 1 μM LJ [2] | inhibition in vivo at 10 mg/kg [3, 4] | inhibition in vivo at 10 mg/kg [3, 5] | Mouse 10 mg/kg % inhib 2 h ([3]; 2 h, 10 mg/kg)
1 | COC(=O)c1c(-c2ccc(F)cc2)c(-c2ccncc2)c(N2CCN(C(=O)OC(C)(C)C)CC2)n1C [Cpd 8a] | 4260 nM | 28 | – | – | –
2 | CCOC(=O)c1c(-c2ccc(F)cc2)c(-c2ccncc2)cn1C [Cpd 86] | 125 nM | −2 | – | – | –
3 | CC(C)NC(=O)c1c(-c2ccc(F)cc2)c(-c2ccncc2)c(N2CCNCC2)n1C [Cpd 89] | – | 22 | – | – | –
4 | CC(C)C(C)NC(=O)c1c(-c2ccc(F)cc2)c(-c2ccncc2)c(N2CCNCC2)n1C (stereo not shown) [Cpd 90] | – | 15 | – | – | –
5 | COC(=O)c1c(-c2ccc(F)cc2)c(-c2ccncc2)c(N2CCN(C(C)=O)CC2)n1C [Cpd 116] | 1530 nM | – | 57% | – | –
6 | COC(=O)c1c(-c2ccc(F)cc2)c(-c2ccncc2)c(Nc2ccccc2)n1C [Cpd 119] | 57 nM | – | -10.5% | – | –
7 | COC(=O)c1c(-c2ccc(F)cc2)c(-c2ccncc2)c(-c2ccc(N(C)C)cc2)n1C [Cpd 122] | 120 nM | – | -22% | – | –
8 | COC(=O)c1c(-c2ccc(F)cc2)c(-c2ccncc2)c(N2CCN(C3CCCC3)CC2)n1C [Cpd 125] | 139 nM | – | 48.6% | – | –
9 | O=C1CCCn2cc(-c3ccncc3)c(-c3ccc(F)cc3)c21 [Cpd 134] | 150 nM | – | 61% | 31% | –
10 | COC(=O)c1c(-c2ccncc2)c(-c2ccc(F)cc2)cn1C [Cpd 141] | 55 nM | – | -56% | – | –
11 | COC(=O)c1c(-c2ccc(F)cc2)c(-c2ccncc2)c(-c2cccc(NC(C)=O)c2)n1C [Cpd 144] | 2 nM | – | 59% | – | –
12 | CON(C)C(=O)c1c(-c2ccc(F)cc2)c(-c2ccncc2)c(N2CCN(C(=O)OC(C)(C)C)CC2)n1C [Cpd 145] | 72 nM | – | 45% | – | –
13 | CN(C)CCn1cc(-c2ccncc2)c(-c2ccc(F)cc2)c1CO [Cpd 147] | 852 nM | – | 20% | – | –
14 | COC(=O)c1c(-c2ccncc2)c(-c2ccc(F)cc2)c(NCCN2CCOCC2)n1C [Cpd 148] | 10000 nM | – | 91% | – | –
15 | COC(=O)c1c(-c2ccncc2)c(-c2ccc(F)cc2)c(NCCc2ccccc2)n1C [Cpd 152] | 1020 nM | – | 58% | – | –
16 | CCOC(=O)c1c(-c2ccc(F)cc2)c(-c2ccncc2)c(CCCOCc2ccccc2)n1C [Cpd 155] | 248 nM | – | 51% | – | –
17 | COC(=O)c1c(-c2ccc(F)cc2)c(-c2ccncc2)c(Nc2ccc(N3CCOCC3)cc2)n1C [Cpd 159] | 1560 nM | – | 29% | – | –
18 | Cn1c(Br)c(-c2ccncc2)c(-c2ccc(F)cc2)c1C#N [Cpd 170] | 625 nM | – | 22% | – | –
19 | COCC#Cc1c(-c2ccc(F)cc2)c(-c2ccncc2)c(C(=O)OC)n1C [Cpd 172] | 443 nM | – | -5% | – | –
20 | CN(CCN1CCOCC1)c1c(-c2ccncc2)c(-c2ccc(F)cc2)cn1C [Cpd 173] | 117 nM | – | 65% | -17% | –
21 | COC(=O)c1c(-c2ccncc2)c(-c2ccc(F)cc2)c(C#CCCN2CCOCC2)n1C [Cpd 175] | 32 nM | – | – | -4% | –
22 | C=CC#Cc1c(-c2ccc(F)cc2)c(-c2ccncc2)c(C(=O)OC)n1C [Cpd 176] | 34 nM | – | – | -20% | –
23 | CC(=O)c1c(-c2ccc(F)cc2)c(-c2ccncc2)c(N2CCN(C)CC2)n1C [Cpd 178] | 370 nM | – | – | 40% | –
24 | CN(CCO)Cc1[nH]cc(-c2ccc(F)cc2)c1-c1ccncc1 [Cpd 180] | 3 nM | – | – | -8% | –
25 | CC(=O)N1CCN(c2c(-c3ccncc3)c(-c3ccc(F)cc3)c(C#N)n2C)CC1 [Cpd 182] | 154 nM | – | – | 81% | –
26 | CN1CCN(c2c(-c3ccncc3)c(-c3ccc(F)cc3)c(C#N)n2C)CC1 [Cpd 183] | 80 nM | – | – | 47% | –
27 | Cn1c(C#N)c(-c2ccc(F)cc2)c(-c2ccncc2)c1N1CCNCC1 [Cpd 186] | 18 nM | – | – | 67% | –

Continued by falling IC50 [1], values first:

Row | IC50 [1] | P38 cell 1 μM LJ [2] | SMILES | inhibition in vivo at 10 mg/kg [3, 4] | inhibition in vivo at 10 mg/kg [3, 5] | Mouse 10 mg/kg % inhib 2 h ([3]; 2 h, 10 mg/kg)
28 | 10000 nM | 1 | COC(=O)c1c(-c2ccc(F)cc2)c(-c2ccncc2)cn1CCN1CCOCC1 [Cpd 60] | – | – | –
29 | 10000 nM | 7 | CCCNC(=O)c1c(-c2ccc(F)cc2)c(-c2ccncc2)c(N2CCNCC2)n1C [Cpd 88] | – | – | –
30 | 969 nM | – | COC(=O)c1c(-c2ccc(F)cc2)c(-c2ccncc2)c(NCCN2CCCC2)n1CCN1CCOCC1 [Cpd 156] | 23% | – | –
31 | 894 nM | – | COC(=O)c1c(-c2ccncc2)c(-c2ccc(F)cc2)c(C#CCCO)n1C [Cpd 167] | 30% | – | –
32 | 819 nM | – | O=C1CCn2c(Br)c(-c3ccncc3)c(-c3ccc(F)cc3)c21 [Cpd 129] | 31% | – | –
33 | 407 nM | – | COC(=O)c1c(-c2ccc(F)cc2)c(-c2ccncc2)c(NCc2cccc(OC)c2)n1C [Cpd 177] | – | 63% | –
34 | 326 nM | – | COC(=O)C1CCn2cc(-c3ccncc3)c(-c3ccc(F)cc3)c2C1=O (stereo not shown) [Cpd 133] | -9% | – | –
35 | 315 nM | – | COC(=O)c1c(-c2ccc(F)cc2)c(-c2ccncc2)c(NC2CCNCC2)n1C [Cpd 131] | 7% | – | –
36 | 269 nM | – | COC(=O)c1c(-c2ccc(F)cc2)c(-c2ccncc2)c(N2CCN(CC3CC3)CC2)n1C [Cpd 128] | 66.3% | – | –
37 | 211 nM | 62 | CCOC(=O)c1c(-c2ccc(Br)cc2)c(-c2ccncc2)cn1C [Cpd 77] | – | – | –
38 | 194 nM | – | COC(=O)c1c(-c2ccc(F)cc2)c(-c2ccncc2)cn1C(C)=O [Cpd 121] | -32.1% | – | –
39 | 190 nM | – | COc1ccc(CNCc2[nH]cc(-c3ccncc3)c2-c2ccc(F)cc2)cc1 [Cpd 138] | -30% | – | –
40 | 171 nM | – | Cn1cc(-c2ccncc2)c(-c2ccc(F)cc2)c1C#N [Cpd 168] | 67% | – | −19%
41 | 136 nM | 42 | CCOC(=O)c1[nH]cc(-c2ccncc2)c1-c1ccc(C)cc1 [Cpd 75] | – | – | –
42 | 135 nM | – | CCN1CCN(c2c(-c3ccncc3)c(-c3ccc(F)cc3)c(C(=O)OC)n2C)CC1 [Cpd 124] | 67.8% | – | –
43 | 105 nM | – | CCn1c(C(=O)OC)c(-c2ccc(F)cc2)c(-c2ccncc2)c1N(C)CCN1CCOCC1 [Cpd 163] | 66% | 13% | –
44 | 92 nM | – | COC(=O)c1c(-c2ccc(F)cc2)c(-c2ccncc2)c(NCCN2CCCCC2)n1C [Cpd 115] | -36% | – | –
45 | 86 nM | 4 | CCOC(=O)c1c(-c2ccc(F)cc2)c(-c2ccncc2)c(Br)n1C [Cpd 87] | – | – | –
46 | 70 nM | – | CCn1cc(-c2ccncc2)c(-c2ccc(F)cc2)c1CO [Cpd 143] | 48% | – | –
47 | 42 nM | – | COC(=O)c1c(-c2ccc(F)cc2)c(-c2ccncc2)c(NCc2ccc(OC)cc2)n1C [Cpd 160] | 79% | -46% | –
48 | 36 nM | 11 | Cn1c(C(=O)C2CC2)c(-c2ccc(F)cc2)c(-c2ccncc2)c1N1CCN(C(=O)C2CC2)CC1 [Cpd 107] | – | – | –
49 | 30 nM | – | CCOC(=O)N1CCN(c2c(-c3ccncc3)c(-c3ccc(F)cc3)c(C(=O)OC)n2C)CC1 [Cpd 179] | – | 8% | –
50 | 27 nM | – | Cn1cc(-c2ccncc2)c(-c2ccc(F)cc2)c1CNC(=O)Nc1ccccc1 [Cpd 185] | – | 82% | –
51 | 23 nM | – | COC(=O)c1c(-c2ccc(F)cc2)c(-c2ccncc2)cn1C(=O)OC [Cpd 139] | -22% | – | –
52 | 7.7 nM | – | COC(=O)c1c(-c2ccc(F)cc2)c(-c2ccncc2)c(C#CCN2CCN(C)CC2)n1C [Cpd 184] | – | 57% | –
53 | 5 nM | – | COC(=O)CN1CCN(c2c(-c3ccncc3)c(-c3ccc(F)cc3)c(C(=O)OC)n2C)CC1 [Cpd 181] | – | 26% | –
